Measured values from ChEMBL document CHEMBL1201862, “PubChem BioAssay data set” (2004).
Active and inactive are the calls of the source.

Tests used:
Cytochrome P450 2D6 = Cytochrome P450 2D6 (Homo sapiens, UniProt P10635);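 note: CYP2D6 member of a cytochrome P450 panel assay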
Cytochrome P450 2C19 = Cytochrome P450 2C19 (Homo sapiens, UniProt P33261); test: Cytochrome panel assay with activity outcomes. Panel member name: p450-cyp2c19 Compounds with AC50 equal or less than 10 uM are considered active; format: functional
Cytochrome P450 2C19, sequence (P33261 whole entry): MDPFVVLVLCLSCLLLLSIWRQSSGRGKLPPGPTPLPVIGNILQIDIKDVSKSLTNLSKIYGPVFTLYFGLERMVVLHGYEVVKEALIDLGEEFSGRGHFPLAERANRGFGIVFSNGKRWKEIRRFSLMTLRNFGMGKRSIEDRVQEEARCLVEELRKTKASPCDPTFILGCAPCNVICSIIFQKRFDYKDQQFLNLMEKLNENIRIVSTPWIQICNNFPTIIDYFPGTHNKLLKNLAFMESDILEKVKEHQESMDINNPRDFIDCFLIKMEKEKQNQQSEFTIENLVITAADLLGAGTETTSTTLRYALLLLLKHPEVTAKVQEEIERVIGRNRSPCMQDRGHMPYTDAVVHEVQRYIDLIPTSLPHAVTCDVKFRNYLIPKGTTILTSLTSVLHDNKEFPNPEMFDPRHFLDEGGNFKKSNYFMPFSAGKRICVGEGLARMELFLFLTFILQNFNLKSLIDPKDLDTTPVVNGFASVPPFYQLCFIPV

[1] = molecular target: T1, Heat shock factor protein 1 (Mus musculus, UniProt P38532); test: decrease of HSF1-responsive luciferase luminescence – cell-based, NIH3T3, dose retest, confirmation (AID 2382); format: functional;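 note: NIH3T3 fibroblasts with HSF1-driven luciferase reporter stressed by proteasome inhibitor MG132; luminescence from HSF1-driven luciferase expression after 8 hours of MG132 stress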
T1 sequence (P38532 whole entry): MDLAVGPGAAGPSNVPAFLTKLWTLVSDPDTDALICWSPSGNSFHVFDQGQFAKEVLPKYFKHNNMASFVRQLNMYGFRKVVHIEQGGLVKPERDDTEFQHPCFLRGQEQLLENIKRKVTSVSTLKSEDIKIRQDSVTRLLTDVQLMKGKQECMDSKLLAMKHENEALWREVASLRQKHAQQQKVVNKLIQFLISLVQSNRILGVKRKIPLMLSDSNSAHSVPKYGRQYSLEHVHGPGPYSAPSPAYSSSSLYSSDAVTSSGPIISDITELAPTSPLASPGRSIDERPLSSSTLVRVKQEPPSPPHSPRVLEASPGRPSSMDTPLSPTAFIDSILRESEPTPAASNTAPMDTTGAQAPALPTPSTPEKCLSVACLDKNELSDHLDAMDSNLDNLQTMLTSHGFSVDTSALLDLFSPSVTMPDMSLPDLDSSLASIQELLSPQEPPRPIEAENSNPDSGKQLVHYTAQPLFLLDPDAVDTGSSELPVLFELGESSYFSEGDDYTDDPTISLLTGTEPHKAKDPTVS

[2] = NIH3T3 cell viability loss – ATP luminescence, mouse fibroblasts, counter-screen, dose response (AID 2010); format: functional, cell-based;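 note: cells exposed to compound for about 90 hours before reading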
[3] = Trypanosoma cruzi growth suppression in host cells – NIH3T3 host cells, beta-gal luminescence, confirmation (AID 2044); format: functional, cell-based;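 note: intracellular parasites grown in NIH/3T3 mouse fibroblasts as host cells; luminescent beta-galactosidase reporter signal from transgenic T. cruzi replicating inside host cells; inhibitors lower the luminescence signal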
[4] = viability of HCT116 lacking mutant beta-catenin – cell-based, human colon tumor, dose response (AID 1045); format: functional;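 note: HCT116 colon tumor cells with beta catenin knocked out; cells exposed to compound for 60 hours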
[5] = viability of PTEN-deleted HCT116 cells – cell-based, HCT116 PTEN knockout, dose response (AID 1047); format: functional;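 note: HCT116 colon tumor cells with PTEN knocked out; cells exposed to compound for 60 hours before readout; potency for loss of cell viability measured by luminescence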
[6] = molecular target: T2, RNA-binding protein pos-1 (Caenorhabditis elegans, UniProt G5EF15); test: disruptors of C. elegans POS-1 RNA interaction – biochemical, fluorescence polarization, dose response (AID 1964);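 note: purified POS-1 fused to maltose binding protein made in E. coli; potency of compounds blocking POS-1 binding to fluorescent RNA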
T2 sequence (G5EF15 whole entry): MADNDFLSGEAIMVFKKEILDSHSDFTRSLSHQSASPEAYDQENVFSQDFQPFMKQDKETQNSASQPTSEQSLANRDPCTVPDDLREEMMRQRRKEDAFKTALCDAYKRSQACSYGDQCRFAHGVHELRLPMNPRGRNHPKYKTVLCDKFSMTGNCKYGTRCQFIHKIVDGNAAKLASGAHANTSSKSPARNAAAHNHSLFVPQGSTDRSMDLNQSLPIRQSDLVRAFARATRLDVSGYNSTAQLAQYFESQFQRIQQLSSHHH

[7] = molecular target: T3, Zinc finger protein mex-5 (Caenorhabditis elegans, UniProt Q9XUB2); test: potency of MEX-5 RNA-binding blockers – biochemical, C. elegans, fluorescence polarization, dose response (AID 1960)
T3 sequence (Q9XUB2 whole entry): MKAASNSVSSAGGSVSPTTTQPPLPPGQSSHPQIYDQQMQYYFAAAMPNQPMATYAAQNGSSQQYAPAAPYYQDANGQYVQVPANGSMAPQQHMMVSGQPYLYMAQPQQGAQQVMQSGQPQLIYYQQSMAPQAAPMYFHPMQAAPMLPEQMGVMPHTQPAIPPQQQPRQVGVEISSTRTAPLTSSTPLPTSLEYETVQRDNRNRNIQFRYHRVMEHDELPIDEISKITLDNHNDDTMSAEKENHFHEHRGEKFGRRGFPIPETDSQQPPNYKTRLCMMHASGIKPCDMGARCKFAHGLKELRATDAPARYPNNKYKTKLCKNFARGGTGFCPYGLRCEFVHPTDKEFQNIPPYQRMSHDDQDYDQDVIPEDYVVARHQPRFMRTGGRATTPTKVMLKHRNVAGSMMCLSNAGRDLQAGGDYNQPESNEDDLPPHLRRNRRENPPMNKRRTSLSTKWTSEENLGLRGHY

[8] = tested on: Streptococcus sp. 'group A'; test: Streptococcus pyogenes SK(-)GAS viability under kanamycin – luminescence, BacTiterGlo, confirmation, counter-screen for streptokinase expression inhibitor project, dose response (AID 1900); format: functional, organism-based
Streptococcus = test: GAS UMAA2166 growth inhibition – luminescence, BacTiterGlo, counter-screen for streptokinase expression inhibitor project, dose response (AID 1915); format: functional, organism-based;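 note: potency for reduction of bacterial viability or growth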

Cytochrome P450 2D6, sequence (P10635 whole entry): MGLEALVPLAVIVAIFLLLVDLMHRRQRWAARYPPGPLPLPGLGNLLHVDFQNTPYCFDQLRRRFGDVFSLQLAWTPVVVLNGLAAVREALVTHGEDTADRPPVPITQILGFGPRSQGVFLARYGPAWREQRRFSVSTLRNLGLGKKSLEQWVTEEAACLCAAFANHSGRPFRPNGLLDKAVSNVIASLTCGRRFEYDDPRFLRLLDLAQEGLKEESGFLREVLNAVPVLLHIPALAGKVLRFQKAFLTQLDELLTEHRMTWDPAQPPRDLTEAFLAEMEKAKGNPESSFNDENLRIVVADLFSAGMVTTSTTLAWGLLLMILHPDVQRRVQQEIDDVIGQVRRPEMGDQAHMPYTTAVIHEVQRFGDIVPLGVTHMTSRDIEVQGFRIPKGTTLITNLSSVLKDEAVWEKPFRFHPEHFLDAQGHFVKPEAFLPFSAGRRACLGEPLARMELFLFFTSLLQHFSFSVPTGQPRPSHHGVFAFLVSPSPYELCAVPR

## Ic1cncc(OC[C@@H]2CCN2)c1
Cytochrome P450 2D6
  AC50: 39.8 µM (inconclusive)
Cytochrome P450 2C19; read-out: AC50
  AC50: 15.8 µM (inconclusive)

## COc1cc(NC(=O)c2cccs2)c(C(=O)OCC(=O)c2cc(C)n(-c3ccc(F)cc3)c2C)cc1OC
[1]
  EC50: 4.87 µM (active)

## CCCCCCC1CC(C)(C(=O)CNc2nncs2)OC1=O (stereo not given)
[2]
  EC50: 23.8 µM (active)
[3]
  EC50: 1.3 µM (active)

## O=C(NC1CCCCC1)C(c1ccc(F)cc1)N(C(=O)Cc1ccsc1)c1ccc(F)cc1 (stereo not given)
[2]
  EC50: > 60 µM (not active)
[3]
  EC50: > 60 µM (not active)

## CC(=O)Nc1nc(-c2ccccc2)nc(-c2ccccc2OC(C)=O)n1
[4]
  EC50: 118 µM (active)
[5]
  EC50: 73.1 µM (active)

## CC1CCN(C(=O)CSc2nc(O)c3cnn(-c4ccc(Cl)cc4)c3n2)CC1
[1]
  EC50: > 195 µM (not active)

## Cc1ccc(CCNC(=O)CN2C(=O)COc3ccccc32)cc1
[2]
  EC50: > 60 µM (not active)
[3]
  EC50: 16.4 µM (active)

## CN1CCN(c2ccc(S(=O)(=O)N3CCCCC3)cc2NC(=O)c2ccc(C#N)cc2)CC1
[2]
  EC50: > 60 µM (not active)
[3]
  EC50: 1.14 µM (active)

## C#CCN1C(=O)C(O)(CC(=O)c2ccc3c(c2)OCCO3)c2ccccc21 (stereo not given)
[4]
  EC50: 29.7 µM (active)
[5]
  EC50: 29.7 µM (active)

## Cc1noc(C)c1-c1nc(NCc2cccs2)c2ccccc2n1
Cytochrome P450 2D6
  AC50: 3.98 µM (inconclusive)

## COc1ccc(CNc2cc(-c3cccnc3)ncn2)c(OC)c1
Cytochrome P450 2D6
  AC50: 39.8 µM (inconclusive)

## CC(C)c1ccc(/C=C/C(=O)Nc2nc3ccc([N+](=O)[O-])cc3s2)cc1
[4]
  EC50: 41.3 µM (active)
[5]
  EC50: 23.3 µM (active)

## Cc1ccc(NC(=O)CCN2C(=O)c3ccncc3C2=O)cc1
Cytochrome P450 2C19; read-out: AC50
  AC50: 39.8 µM (inconclusive)

## CCc1ccccc1N1C(=O)/C(=C/c2ccc(N3CCN(C)CC3)o2)C(=O)NC1=S
[6]
  EC50: > 300 µM (inconclusive)

## CCCCCCn1c(N)c(C(=O)NCCN2CCOCC2)c2nc3ccccc3nc21
[4]
  EC50: 19.7 µM (active)
[5]
  EC50: 17.7 µM (active)

## CCOC(=O)C1=NNC2(c3ccc(Cl)cc3)C(=O)N(c3cc(C)cc(C)c3)C(=O)C12 (stereo not given)
Cytochrome P450 2C19; read-out: AC50
  AC50: 2.51 µM (inconclusive)

## CC(=O)C1=C(c2ccccc2)NC(=O)NC1c1ccc(O)c(O)c1 (stereo not given)
[7]
  EC50: 43.4 µM (active)
[6]
  EC50: > 300 µM (not active)

## O=C(NCc1ccccc1)C1=C[C@@H](c2ccc(C(F)(F)F)cc2)C[C@@H](OCc2ccc(CO)cc2)O1
[2]
  EC50: > 60 µM (not active)
[3]
  EC50: 0.669 µM (active)

## COc1ccc(CCn2c(=N)c(C(=O)NC3CCCCC3)cc3c(=O)n4ccccc4nc32)cc1
[7]
  EC50: 8.45 µM (inconclusive)
[6]
  EC50: 21.6 µM (active)

## CCCCCCCC(=O)NNC(=O)c1c(O)c2ccccc2n(CC)c1=O
[8]
  EC50: 2.31 µM (active)
Streptococcus
  EC50: 6.17 µM (active)

## COc1ccc(Cl)cc1C(=O)C1CCCN(Cc2cnc(N3CCOCC3)s2)C1 (stereo not given)
[2]
  EC50: > 60 µM (not active)
[3]
  EC50: 0.135 µM (active)

## O=C(/C=C/c1ccco1)NC(=S)NNC(=O)c1ccco1
[7]
  EC50: 15.7 µM (active)
[6]
  EC50: 98.1 µM (active)

## Cc1ncn(-c2ccccc2O)c1C
Cytochrome P450 2D6
  AC50: 3.16 µM (inconclusive)

## Cc1ccc(C)c(-c2cc(C(=O)NCc3cccs3)c3ccccc3n2)c1
Cytochrome P450 2D6
  AC50: 14.1 µM (inconclusive)
Cytochrome P450 2C19; read-out: AC50
  AC50: 3.55 µM (inconclusive)

## Cc1cc(N2C(=O)C(O)=C(C(=O)c3ccco3)C2c2ccc(O)cc2)no1 (stereo not given)
Cytochrome P450 2C19; read-out: AC50
  AC50: 35.5 µM (inconclusive)

## Cc1ccc(-n2c(N)c(C(=O)Nc3c(C)n(C)n(-c4ccccc4)c3=O)c3nc4ccccc4nc32)cc1C
[4]
  EC50: 11.5 µM (active)
[5]
  EC50: 8.61 µM (active)

## CC(C)=C1C2CCC1C1C(=O)N(c3ccc(C)c(C)c3)C(=O)C21 (stereo not given)
[1]
  EC50: > 195 µM (not active)

## Cc1ccc(-c2c[n+](CC(=O)c3ccc(Br)cc3)c3n2CCCCC3)cc1
[2]
  EC50: > 60 µM (not active)
[3]
  EC50: 0.465 µM (active)

## COCc1cc(C)nc(SCC(=O)Nc2cc(C(F)(F)F)ccc2N2CCOCC2)c1C#N
[2]
  EC50: > 60 µM (not active)
[3]
  EC50: 0.807 µM (active)

## O=C(Nc1ccccc1C(=O)Nc1nnc(C(F)(F)F)s1)c1ccccc1Cl
[8]
  EC50: 1.36 µM (active)
Streptococcus
  EC50: 3.2 µM (active)

## Oc1cccc2ccc(/C=C/c3ccc(Br)s3)nc12
[8]
  EC50: 2.56 µM (active)
Streptococcus
  EC50: 4.33 µM (active)

## Cc1cc(C)nc(NN2C(=O)C=CC2=O)n1
[7]
  EC50: 40.8 µM (active)
[6]
  EC50: > 300 µM (not active)

## COc1cccc(Cn2c(=O)cnc3cnc(Nc4cccc(OC)c4)nc32)c1
Cytochrome P450 2D6
  AC50: 39.8 µM (inconclusive)

## CN(CCOc1ccccc1)CC(=O)Nc1ccc(Cl)c(S(=O)(=O)N(C)C)c1
[2]
  EC50: > 60 µM (not active)
[3]
  EC50: 0.503 µM (active)

## C=CCN1C(=O)NC(=O)/C(=C(/CC)NC2CC2)C1=O
Cytochrome P450 2D6
  AC50: 1.12 µM (inconclusive)
Cytochrome P450 2C19; read-out: AC50
  AC50: 22.4 µM (inconclusive)

## NS(=O)(=O)c1ccc2c(c1)C1C=CCC1C(C1CC=CCC1)N2 (stereo not given)
[7]
  EC50: 20.7 µM (inconclusive)
[6]
  EC50: 18.3 µM (active)

## Cc1c(C(=O)O)cccc1-n1c(C)cc(/C=C(/C#N)C(=O)NCc2ccccc2)c1C
[7]
  EC50: > 300 µM (not active)
[6]
  EC50: > 300 µM (not active)

## CCOc1ccc2ccccc2c1C1NC(=O)N(C)C(C)=C1C(=O)OCCOC (stereo not given)
[7]
  EC50: > 300 µM (not active)
[6]
  EC50: > 300 µM (not active)

## COC(=O)N1CCC2(CCN(C(=O)Nc3ccccc3)CC2)CC1
Cytochrome P450 2C19; read-out: AC50
  AC50: 20 µM (inconclusive)

## COc1ccc(CNc2ccc3c(c2)CCC3)cc1OC
[2]
  EC50: > 30 µM (not active)
[3]
  EC50: 15.4 µM (active)

## NCCNc1ncnc2ccc(Cl)cc12
Cytochrome P450 2D6
  AC50: 3.16 µM (inconclusive)

## CN(C)CCCn1c2ccccc2c2cnccc21
Cytochrome P450 2D6
  AC50: 3.98 µM (inconclusive)

## Fc1ccc(SCCc2ccncc2)cc1
[2]
  EC50: > 30 µM (not active)
[3]
  EC50: 1.27 µM (active)

## CCC(C)NCCOCCOc1ccc(Br)cc1 (stereo not given)
[2]
  EC50: > 60 µM (not active)
[3]
  EC50: 0.106 µM (active)

## C(=N\n1cncn1)/c1ccc(N2CCOCC2)cc1
[1]
  EC50: > 195 µM (not active)

## CN(CCCNC(=O)c1ccc(/C=N/O)nc1)CCCN(C)Cc1ccccc1
Cytochrome P450 2C19
  AC50: inconclusive

## FC(F)(F)COc1nc(N/N=C/c2cccnc2)nc(N2CCCCC2c2ccccn2)n1 (stereo not given)
[2]
  EC50: > 60 µM (not active)
[3]
  EC50: 2.37 µM (active)

## Cc1nn(-c2ccccn2)c2c1C(c1ccccc1Cl)C1=C(N2)c2ccccc2C1=O (stereo not given)
[4]
  EC50: 24.9 µM (active)
[5]
  EC50: 24.7 µM (active)
